Experimental findings from US20240051975A1 (TSINGHUA UNIVERSITY, priority 2020, published 2024) are described below.

Experiment [1] addresses T1, NAMPT (Homo sapiens, UniProt P43490). In words: Isothermal calorimetric titration (ITC) binding to NAMPT. (In ITC the heat of successive injections is recorded.)
Excerpt: We verified the direct binding between in vitro expressed and purified NAMPT and NAT by isothermal calorimetric titration (ITC). […] The final data were fitted using a single-point model.
Experiment [2] deals with cell death induced by the NAMPT inhibitor FK866. Put plainly: Protection against cell death induced by the NAMPT inhibitor FK866 (Celltiter-Glo, cellular ATP). The class given is cell-based. Conditions: AUC of dose-response curve (0.1-10 μM) relative to AUC of NAT; 10 nM FK866, 72 hours, cell viability by ATP. Here is the method:
In the latter cell-based assay, we determined the degree of protection of NAT and derivatives thereof against the NAMPT inhibitor FK866. […] After 72 hours, Celltiter-Glo (Promega) was used to detect cellular ATP levels to reflect cell viability and normalized to the DMSO group. A dose-response curve was drawn to evaluate the cytoprotective activity of individual compounds against FK866. Then the area under the dose-response curve (AUC, area under curve) of each compound was calculated and compared with the AUC of NAT, so that the obtained relative value quantitatively expressed the cytoprotective activity of each compound.
In general terms: Cellular ATP, detected with luciferase, serves as a proxy for viable cell number.

Experiment [3] deals with T1, NAMPT. Put plainly: NAMPT enzyme activity assay coupled with NMNAT1 and ADH (NADH fluorescence). Conditions: for Relative activation of NAMPT activity: AUC of dose-response curve (0.1, 0.3, 1, 3, 10 μM) relative to AUC of NAT (NAT = 1), 1 μM NAMPT, 200 μM NAM.
Description: The NAMPT enzyme activity was assayed by a method coupled with the three enzymes: NAMPT, NMNAT1 and alcohol dehydrogenase (ADH). NAMPT synthesizes NMN from NAM and PRPP, NMNAT1 synthesizes NAD from NMN produced in the first step, and ADH converts NAD into detectable fluorescent NADH. […] The reaction was initiated by adding 200 μM nicotinamide (NAM) and mixing gently. The enzyme activity of NAMPT was expressed as the concentration of NADH generated per minute (the molar value was equal to NAD). The relative enzyme activity of NAMPT in each compound-treated group was normalized by the value of the DMSO-treated group, and a dose-response curve was drawn to evaluate the effect of individual compounds on NAMPT enzyme activity. The area under the dose-response curve (AUC, area under curve) was then calculated for individual compound and compared to the AUC of NAT, so that the obtained relative value quantitative Eauc represented the enzyme activation activity of each compound, and the specific calculation formula was shown in FIG. 3.

T1 sequence (P43490 whole entry, species assumed): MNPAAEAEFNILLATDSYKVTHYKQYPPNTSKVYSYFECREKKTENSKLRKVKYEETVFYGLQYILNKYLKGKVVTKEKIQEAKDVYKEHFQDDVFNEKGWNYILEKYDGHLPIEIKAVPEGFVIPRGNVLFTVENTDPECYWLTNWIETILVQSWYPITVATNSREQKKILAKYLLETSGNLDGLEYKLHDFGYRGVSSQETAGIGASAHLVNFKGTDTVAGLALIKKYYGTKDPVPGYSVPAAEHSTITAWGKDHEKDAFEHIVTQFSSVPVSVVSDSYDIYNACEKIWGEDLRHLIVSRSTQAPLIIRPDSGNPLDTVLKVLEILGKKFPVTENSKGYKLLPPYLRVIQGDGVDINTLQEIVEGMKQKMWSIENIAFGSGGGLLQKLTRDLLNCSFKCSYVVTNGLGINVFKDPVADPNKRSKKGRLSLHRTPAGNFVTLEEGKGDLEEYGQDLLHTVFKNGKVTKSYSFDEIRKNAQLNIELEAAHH

With `CC(C)(C)c1ccccc1OCC(=O)Nc1ccccc1` [Compound 2, 2-(2-(tert-butyl)phenoxy)-N-phenylacetamide], the “binding to NAMPT (in words)” value on NAMPT [1] is “cannot bind NAMPT”. The Relative cytoprotective activity in experiment [2] is on record as 0.02446. On NAMPT [3], the “NAMPT activation activity (in words)” value was “cannot activate NAMPT” and the “Relative activation of NAMPT activity” value is given as −0.2247.
`CC(C)(C)c1cccc(C(C)(C)C)c1OCC(=O)Nc1ccc(O)cc1` [Compound 18, 2-(2,6-di-tert-butylphenoxy)-N-(4-hydroxyphenyl)acetamide]: in experiment [2], the Relative cytoprotective activity stood at 0.04793. In addition, the “Relative activation of NAMPT activity” value on NAMPT [3] is reported as −0.142.
On the same counts, the results for `Cc1cccc(OCC(=O)Nc2ccc(O)cc2)c1` [Compound 19, N-(4-hydroxyphenyl)-2-(m-tolyloxy)acetamide] are 0.09517 and 0.1507.
The like results for `CC(C)(C)c1cccc(CNC(=O)Nc2ccc(O)cc2)c1` [Compound 20, 1-(3-tert-butyl)benzyl-3-(4-hydroxyl)phenylurea] were, in that order, 0.135 and −0.1622.
On the same counts, the results for `CC(C)(C)c1cccc(OCC(=O)NCc2ccc(O)cc2)c1` [Compound 22, 2-(3-(tert-butyl)phenoxy)-N-(4-hydroxybenzyl)acetamide] are 0.1187 and −0.2162.
In experiment [2], `O=C(COc1ccccc1C(F)(F)F)Nc1ccc(O)cc1` [Compound 23, N-(4-hydroxyphenyl)-2-(2-(trifluoromethyl)phenoxy)acetamide] yielded a Relative cytoprotective activity of 0.2337. Besides, the “Relative activation of NAMPT activity” value on NAMPT [3] is listed as 0.2389.
On the same counts, the results for `CC(C)c1ccccc1OCC(=O)Nc1ccc(O)cc1` [Compound 24, N-(4-hydroxyphenyl)-2-(2-isopropylphenoxy)acetamide] are 0.5447 and 1.35.
`CC(C)(C)c1ccccc1OCC(=O)Nc1ccc(O)cc1Cl` [Compound 36, 2-(2-(tert-butyl)phenoxy)-N-(2-chloro-4-hydroxyphenyl)acetamide] gave a Relative cytoprotective activity in experiment [2] of 0.06922. Also, on NAMPT [3], the “Relative activation of NAMPT activity” value was found to be 0.2583.
On the same counts, the results for `CC(C)(C)c1ccccc1OCC(=O)Nc1ccc(O)cc1F` [Compound 40, 2-(2-(tert-butyl)phenoxy)-N-(2-fluoro-4-hydroxyphenyl)acetamide] are 0.1859 and 0.03898.
The like results for `CC(C)(C)c1ccccc1OCC(=O)Nc1ccc(O)c(F)c1` [Compound 41, 2-(2-(tert-butyl)phenoxy)-N-(3-fluoro-4-hydroxyphenyl)acetamide] were, in that order, 0.9588 and 0.1348.
On the same counts, the results for `COc1ccc(OCC(=O)Nc2ccc(O)cc2)c(C(C)(C)C)c1` [Compound 51] are 1.402 and 1.382.
For `CC(C)(C)c1cc(O)ccc1OCC(=O)Nc1ccc(O)cc1` [Compound 52], the Relative cytoprotective activity in experiment [2] is 1.358. Moreover, at NAMPT [3], the “Relative activation of NAMPT activity” value is on record as 1.488.
The like results for `Cc1cccc(C(C)(C)C)c1OCC(=O)Nc1ccc(O)cc1` [Compound 53, 2-(2-(tert-butyl)-6-methylphenoxy)-N-(4-hydroxyphenyl)acetamide] were, in that order, 0.571 and 0.327.
Take `Cc1ccc(C(C)(C)C)c(OCC(=O)Nc2ccc(O)cc2)c1` [Compound 55, 2-(2-(tert-butyl)-5-methylphenoxy)-N-(4-hydroxyphenyl)acetamide]: the Relative cytoprotective activity in experiment [2] was found to be 0.6623. On NAMPT [3], the “Relative activation of NAMPT activity” value was 0.1726.
The like results for `CC(C)(C)c1cc(Cl)ccc1OCC(=O)Nc1ccc(O)cc1` [Compound 57, 2-(2-(tert-butyl)-4-chlorophenoxy)-N-(4-hydroxyphenyl)acetamide] were, in that order, 1.099 and 0.3183.
Turning to `CC(C)(C)c1cccc(CO)c1OCC(=O)Nc1ccc(O)cc1` [Compound 58, 2-(2-(tert-butyl)-6-(hydroxymethyl)phenoxy)-N-(4-hydroxyphenyl)acetamide], the Relative cytoprotective activity in experiment [2] is on record as 0.8071. Besides, the “Relative activation of NAMPT activity” value at NAMPT [3] is listed as 0.5159.
On the same counts, the results for `CC(C)(C)c1cc(Br)ccc1OCC(=O)Nc1ccc(O)cc1` [Compound 61, 2-(4-bromo-2-(tert-butyl)phenoxy)-N-(4-hydroxyphenyl)acetamide] are 1.285 and 0.4032.
Compound `COC(=O)c1ccc(C(C)(C)C)c(OCC(=O)Nc2ccc(O)cc2)c1` [Compound 62, 4-(tert-butyl)-3-(24(4-hydroxyphenyl)amino)-2-oxoethoxy)methyl benzoate] showed a Relative cytoprotective activity in experiment [2] of 0.7359. Further, the “Relative activation of NAMPT activity” value at NAMPT [3] was determined as 0.5464.
The like results for `CC(C)(C)c1ccc(C(N)=O)cc1OCC(=O)Nc1ccc(O)cc1` [Compound 63] were, in that order, 1.065 and 2.041.
On the same counts, the results for `CC(C)(C)c1ccc(C(=O)O)cc1OCC(=O)Nc1ccc(O)cc1` [Compound 64] are 0.2131 and −0.0799.
On the same counts, the results for `COC(=O)c1cccc(C(C)(C)C)c1OCC(=O)Nc1ccc(O)cc1` [Compound 65, 3-(tert-butyl)-2-(2-((4-hydroxyphenyl)amino)-2-oxoethoxy)methyl benzoate] are 0.1431 and 0.00292.
`CC(C)(C)c1cc(C#N)ccc1OCC(=O)Nc1ccc(O)cc1` [Compound 66, 2-(2-(tert-butyl)-4-cyanophenoxy)-N-(4-hydroxyphenyl)acetamide] had a Relative cytoprotective activity in experiment [2] of 1.569. Also, the “Relative activation of NAMPT activity” value at NAMPT [3] amounted to 1.2627.
